Patent US20150342908A1, “SECOAPORPHINE ALKALOID DERIVATIVE FOR ACTIVATING AMP-DEPENDENT PROTEIN KINASE” (ZIH YUAN TANG Biotechnology Co., Ltd, priority 2014, published 2015)

Tested on: AMPK
Test: AMPK phosphorylation (Thr172) western blot in C2C12 myocytes
Format: cell-based, mouse
Protocol: C2C12 skeletal myoblast cell line was purchased from the Food Industry Research and Development Institute (Hsinchu, Taiwan). The C2C12 cell line was a cell line obtained from culturing the leg skeletal muscle of adult C3H mice in a cell incubator under […], 5% CO2, and 37° C. The cells were cultured in a DMEM medium (Gibco/Invitrogen, Carlsbad, Calif.) containing 4.5 mg/mL glucose, 10% fetal bovine serum (FBS; Gibco/Invitrogen, Carlsbad, Calif.), and an antibiotic solution (with final concentrations of penicillin=100 IU/mL and streptomycin=100 μg/mL). When the C2C12 myoblast cells have proliferated to cover seven-tenths of the area in the petri dish, the fetal bovine serum was replaced by 2% horse serum (Gibco/Invitrogen, Carlsbad, Calif.) so as to induce the C2C12 myoblast cells to become the multi-nuclei myocytes. The C2C12 myoblast cells differentiated into myocytes in 4 days, and the culture medium of the cells was replaced with no-serum DMEM 24 hours before the experiments so as to reduce metabolism of the cells. The C2C12 myocytes were treated respectively with 1 μM, 3 μM and 10 μM N-allylsecoboldine for 5 and 15 minutes. Then the C2C12 myocytes were rinsed with PBS buffer solution, and RIPA buffer solution containing protease inhibitors (20 mM Tris-HCl (pH 7.4), 100 mM NaCl, 1 mM EDTA, 1 mM EGTA, 0.1% SDS, 0.5% sodium deoxycholate, 1% NP-40, and 100× protease inhibitor cocktail) was added into the cells. The cells were collected and centrifuged on ice. Then, the concentrations of the supernatant samples were adjusted to be the same. The supernatant samples were put through vertical electrophoresis isolation with 8% SDS-PAGE, and the isolated proteins were transferred onto a PVDF blotting membrane. After blotting was completed, the PVDF blotting membrane was removed and blocked for 1 hour under room temperature with a blocking buffer of TBST (Tris-buffered saline with Tween-20) with 5% non-fat milk. Then, the PVDF blotting membrane was placed into a 5% BSA and TBST solution containing the primary monoclonal antibodies Phospho-AMPKα (Thr172) (Cell Signaling) (1:1000) and AMPKα (Thr172) (Cell Signaling) (1:1000), respectively, and the primary immunoblotting reaction was performed under 4° C. Then, the PVDF blotting membrane was rinsed 3 times with TBST, and a TBST solution containing the secondary antibody goat anti-rabbit IgG (Perkin Elmer) (1:10000) was added to perform the secondary reaction for one hour under room temperature. Finally, the membrane was rinsed 3 times with TBST before ECL (enhanced chemiluminescence) was added to present color.

C=CCN(C)CCc1cc(O)c(OC)c2c1ccc1cc(O)c(OC)cc12 [N-allylsecoboldine]
AMPK phosphorylation, times of that in the control cells (3 μM, 5 minutes): 2.34 times
AMPK phosphorylation, times of that in the control cells (3 μM, 15 minutes): 1.38 times
AMPK phosphorylation, times of that in the control cells (10 μM, 5 minutes): 2.51 times
AMPK phosphorylation, times of that in the control cells (10 μM, 15 minutes): 2.79 times
effect in AMPK activation (in words) (C2C12 cells, overall conclusion): excellent effect in AMPK activation
